Data reported in article PMC7614683, “A small molecule PI3Kα activator for cardioprotection and neuroregeneration” (Nature, 2023).
Read-outs that look alike come from different tables or passages of the source.

What was measured:
Assay in all cases: SelectScreen Z-LYTE kinase activity assay (SI Table 6)
Type in all cases: biochemical
[1] = molecular target: protein kinases of the Z-LYTE panel (Homo sapiens, UniProt P04049, Y340D/Y341D); settings: RAF1 (cRAF) Y340D Y341D, 1000 nM, [ATP] 100 μM
Method in brief: (§1)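 Compound 1938 counterscreened at 1 μM against 133 protein and 7 lipid kinases in the SelectScreen panel, using Adapta, LanthaScreen binding and Z-LYTE formats as applicable.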

[2] = molecular target: T1, protein kinases of the Z-LYTE panel (Homo sapiens, UniProt P36888)
T1 sequence (P36888 27-993): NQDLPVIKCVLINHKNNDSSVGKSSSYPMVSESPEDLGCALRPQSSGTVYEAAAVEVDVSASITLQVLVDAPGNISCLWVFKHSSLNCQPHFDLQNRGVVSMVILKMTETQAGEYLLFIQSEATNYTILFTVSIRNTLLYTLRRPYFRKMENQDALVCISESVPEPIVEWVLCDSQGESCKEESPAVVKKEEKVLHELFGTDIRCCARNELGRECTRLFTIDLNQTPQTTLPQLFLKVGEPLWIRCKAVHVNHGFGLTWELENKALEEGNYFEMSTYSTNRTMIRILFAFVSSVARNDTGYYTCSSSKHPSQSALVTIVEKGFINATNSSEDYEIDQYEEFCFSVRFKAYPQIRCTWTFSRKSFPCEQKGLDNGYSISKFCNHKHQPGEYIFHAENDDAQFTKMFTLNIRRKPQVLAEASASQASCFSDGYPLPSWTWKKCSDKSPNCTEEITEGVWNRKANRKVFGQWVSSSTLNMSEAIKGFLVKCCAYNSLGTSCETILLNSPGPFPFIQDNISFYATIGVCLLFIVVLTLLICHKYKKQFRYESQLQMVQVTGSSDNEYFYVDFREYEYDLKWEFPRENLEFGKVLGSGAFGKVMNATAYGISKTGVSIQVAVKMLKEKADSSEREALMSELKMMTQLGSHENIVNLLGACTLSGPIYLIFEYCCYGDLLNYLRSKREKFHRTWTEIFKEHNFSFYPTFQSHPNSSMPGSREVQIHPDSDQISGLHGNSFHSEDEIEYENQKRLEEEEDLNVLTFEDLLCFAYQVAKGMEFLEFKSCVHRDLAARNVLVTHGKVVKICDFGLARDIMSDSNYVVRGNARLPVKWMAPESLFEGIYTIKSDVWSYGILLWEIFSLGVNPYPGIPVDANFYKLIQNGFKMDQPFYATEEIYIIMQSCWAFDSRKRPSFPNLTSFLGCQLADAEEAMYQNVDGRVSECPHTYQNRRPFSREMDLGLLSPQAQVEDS
Method in brief: as §1

[3] = molecular target: T2, protein kinases of the Z-LYTE panel (Homo sapiens, UniProt O00418)
T2 sequence (O00418 1-725): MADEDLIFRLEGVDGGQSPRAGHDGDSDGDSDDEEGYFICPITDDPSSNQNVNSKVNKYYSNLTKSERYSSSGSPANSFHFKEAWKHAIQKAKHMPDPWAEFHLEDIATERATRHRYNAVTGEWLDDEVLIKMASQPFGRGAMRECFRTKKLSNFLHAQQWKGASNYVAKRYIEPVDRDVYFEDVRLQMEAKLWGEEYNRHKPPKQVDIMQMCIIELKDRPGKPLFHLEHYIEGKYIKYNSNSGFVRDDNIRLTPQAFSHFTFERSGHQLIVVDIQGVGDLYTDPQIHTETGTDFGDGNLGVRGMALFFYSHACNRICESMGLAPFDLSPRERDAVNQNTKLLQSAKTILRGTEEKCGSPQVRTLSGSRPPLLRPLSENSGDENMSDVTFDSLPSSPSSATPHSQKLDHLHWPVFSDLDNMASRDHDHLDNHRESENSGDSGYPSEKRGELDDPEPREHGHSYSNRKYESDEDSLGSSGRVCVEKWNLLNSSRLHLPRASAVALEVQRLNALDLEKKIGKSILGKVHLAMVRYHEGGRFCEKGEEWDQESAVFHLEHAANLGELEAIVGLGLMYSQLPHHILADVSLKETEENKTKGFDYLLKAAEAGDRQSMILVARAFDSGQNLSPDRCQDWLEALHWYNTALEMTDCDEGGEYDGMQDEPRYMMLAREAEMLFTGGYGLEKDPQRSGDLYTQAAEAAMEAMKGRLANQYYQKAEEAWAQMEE
Method in brief: as §1

[4] = molecular target: protein kinases of the Z-LYTE panel (Homo sapiens, UniProt P43405)
Method in brief: as §1

Chain of protein kinases of the Z-LYTE panel (Homo sapiens, UniProt P04049, Y340D/Y341D) (P04049 whole entry Y340D/Y341D): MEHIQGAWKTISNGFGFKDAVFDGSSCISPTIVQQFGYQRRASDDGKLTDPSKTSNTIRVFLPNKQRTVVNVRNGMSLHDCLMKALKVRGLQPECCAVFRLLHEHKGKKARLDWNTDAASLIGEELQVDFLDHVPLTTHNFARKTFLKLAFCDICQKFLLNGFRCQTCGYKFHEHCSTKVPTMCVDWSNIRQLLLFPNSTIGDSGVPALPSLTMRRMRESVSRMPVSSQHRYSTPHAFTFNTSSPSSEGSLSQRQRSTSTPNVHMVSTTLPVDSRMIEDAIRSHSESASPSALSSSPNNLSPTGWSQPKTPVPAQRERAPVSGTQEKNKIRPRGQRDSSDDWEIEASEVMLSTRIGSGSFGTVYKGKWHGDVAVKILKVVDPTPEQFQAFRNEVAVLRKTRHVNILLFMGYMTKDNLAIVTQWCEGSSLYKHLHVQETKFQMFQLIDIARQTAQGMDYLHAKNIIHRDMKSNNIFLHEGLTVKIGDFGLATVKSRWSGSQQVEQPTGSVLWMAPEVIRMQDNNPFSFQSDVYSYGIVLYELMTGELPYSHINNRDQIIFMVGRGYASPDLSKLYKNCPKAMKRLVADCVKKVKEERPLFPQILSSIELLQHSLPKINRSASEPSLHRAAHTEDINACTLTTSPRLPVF

`CCN1CCN(c2ccc(Nc3cc(Nc4cccc5c4N(C(C)=O)CC5)ccn3)cc2)CC1` [Compound 1938] was tested, and the inhibition at 1 µM ([1]; read-out: % Inhibition Point 1) was 5.53%, the inhibition at 1 µM ([1]; read-out: % Inhibition Point 2) was 8% and the inhibition at 1 µM ([1]; read-out: % Inhibition mean) was 6.59%. The inhibition at 1 µM ([2]; read-out: % Inhibition Point 1) was 19%, the inhibition at 1 µM ([2]; read-out: % Inhibition Point 2) was 20% and the inhibition at 1 µM ([2]; read-out: % Inhibition mean) was 19%. For the same compound, the inhibition at 1 µM ([3]; read-out: % Inhibition Point 1) was -0.0213%, the inhibition at 1 µM ([3]; read-out: % Inhibition Point 2) was 0.399% and the inhibition at 1 µM ([3]; read-out: % Inhibition mean) was 0.189%. For the same compound, the inhibition at 1 µM ([4]; read-out: % Inhibition Point 1) was 3%, the inhibition at 1 µM ([4]; read-out: % Inhibition Point 2) was 3.66% and the inhibition at 1 µM ([4]; read-out: % Inhibition mean) was 3.32%.
